Results published in BindingDB's records for doi:10.1021/acsmedchemlett.6b00145 (Amgen, 2016).

What was measured:
Hexokinase-4 [1] = biological target: T1, Hexokinase-4 (Homo sapiens, UniProt P35557); assay: Activation of human recombinant glucokinase using 5 mM glucose as substrate in presence of NAD+ and 4% HSA by glucose 6-phosphate dehydrogenase coupled assay
T1 sequence (P35557 whole entry): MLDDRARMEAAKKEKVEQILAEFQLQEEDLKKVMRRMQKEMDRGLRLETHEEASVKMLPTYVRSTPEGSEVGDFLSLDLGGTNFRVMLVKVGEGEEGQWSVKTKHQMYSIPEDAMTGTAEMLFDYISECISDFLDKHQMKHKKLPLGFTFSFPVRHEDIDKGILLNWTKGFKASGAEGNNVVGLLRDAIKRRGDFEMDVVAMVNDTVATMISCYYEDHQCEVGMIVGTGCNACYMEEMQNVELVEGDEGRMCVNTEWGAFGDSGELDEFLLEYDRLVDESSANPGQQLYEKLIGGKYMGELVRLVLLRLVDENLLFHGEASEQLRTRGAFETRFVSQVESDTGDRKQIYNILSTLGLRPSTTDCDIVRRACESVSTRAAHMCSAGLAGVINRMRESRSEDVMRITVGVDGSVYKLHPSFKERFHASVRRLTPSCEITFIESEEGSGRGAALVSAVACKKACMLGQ

Hexokinase-4 [2] = biological target: T1, Hexokinase-4; assay: Activation of human recombinant glucokinase using 5 mM glucose as substrate in presence of NAD+ by glucose 6-phosphate dehydrogenase coupled assay

SMILES	EC50 (Hexokinase-4 [1])	EC50 (Hexokinase-4 [2])
CNC(=O)Nc1cc(Oc2cncc(C)c2)c([C@H]2C[C@@H]2CO)cn1	0.17 µM	0.13 µM
CNC(=O)Nc1cc(Oc2cncc(C)c2)c([C@H]2C[C@@H]2C(C)(C)O)cn1	0.13 µM	0.083 µM
CNC(=O)Nc1cc(Oc2cncc(OC)c2)c([C@@H]2COCC[C@@H]2O)cn1	0.92 µM	0.94 µM
CNC(=O)Nc1cc(Oc2cncc(C)c2)c([C@@H]2CC[C@@H](O)C2)cn1	0.19 µM	0.097 µM
